Earlier results, collected in US20240041963A1, “A NUTRACEUTICALS FORMULATION WITH AN ENHANCED ORGANOLEPTIC PROPERTIES USED FOR SCALP AND HAIR CARE” (DiaBliss Consumer Products Pvt Ltd, priority 2020, published 2024).
Read-outs that look alike come from different tables or passages of the source.

Key:
[1] = test system: Male Patients with Androgenetic Alopecia; conditions: 30 men, 5 mg oral; for Hair Density in 1 sq cm area: Day 0 182.5
[2] = test system: Male Patients with Androgenetic Alopecia; conditions: 30 men, 5 mg oral; for Hair Diameter: Day 0 58.5
[3] = test system: men with hair loss; conditions: according to the American Academy of Dermatology

| Compound | Hair Density Increase vs Day 0 ([1]; Week 12 (Day 84)) | Hair Density in 1 sq cm area ([1]; Week 12 (Day 84)) | Hair Density Increase vs Day 0 ([1]; Week 24 (Day 168)) | Hair Density in 1 sq cm area ([1]; Week 24 (Day 168)) | Hair Diameter Increase vs Day 0 ([2]; Week 12 (Day 84)) | Hair Diameter ([2]; Week 12 (Day 84)) | Hair Diameter Increase vs Day 0 ([2]; Week 24 (Day 168)) | Hair Diameter ([2]; Week 24 (Day 168)) | men in whom it slows hair loss [3] | men in whom it stimulates regrowth [3] |
| --- | --- | --- | --- | --- | --- | --- | --- | --- | --- | --- |
| Nc1cc(N2CCCCC2)nc(N)[n+]1[O-] [Oral Minoxidil, 2,4-diamino-6-piperidinopyrimidine 3-oxide] | 14.2% | 208.5 | 19.2% | 217.6 | 10.6% | 64.7 µm | 15.2% | 67.4 µm |  |  |
| CC(C)(C)NC(=O)[C@H]1CC[C@H]2[C@@H]3CC[C@H]4NC(=O)C=C[C@]4(C)[C@H]3CC[C@]12C [Finasteride] |  |  |  |  |  |  |  |  | about 88% | about 66% |
